Source: publication PMC2199025 (The Journal of Experimental Medicine, 1997)
Ends that are not written are not given here.

Experiments:
H-2K^b = H-2K^b (Mus musculus, UniProt P01901); test: Peptide competition cytotoxicity assay; type: cell-based, murine
[1] = target: T1, transporters associated with processing (Mus musculus, UniProt P21958+P36371); test: Transporter associated with processing; type: biochemical
T1 sequence (P21958 1-724): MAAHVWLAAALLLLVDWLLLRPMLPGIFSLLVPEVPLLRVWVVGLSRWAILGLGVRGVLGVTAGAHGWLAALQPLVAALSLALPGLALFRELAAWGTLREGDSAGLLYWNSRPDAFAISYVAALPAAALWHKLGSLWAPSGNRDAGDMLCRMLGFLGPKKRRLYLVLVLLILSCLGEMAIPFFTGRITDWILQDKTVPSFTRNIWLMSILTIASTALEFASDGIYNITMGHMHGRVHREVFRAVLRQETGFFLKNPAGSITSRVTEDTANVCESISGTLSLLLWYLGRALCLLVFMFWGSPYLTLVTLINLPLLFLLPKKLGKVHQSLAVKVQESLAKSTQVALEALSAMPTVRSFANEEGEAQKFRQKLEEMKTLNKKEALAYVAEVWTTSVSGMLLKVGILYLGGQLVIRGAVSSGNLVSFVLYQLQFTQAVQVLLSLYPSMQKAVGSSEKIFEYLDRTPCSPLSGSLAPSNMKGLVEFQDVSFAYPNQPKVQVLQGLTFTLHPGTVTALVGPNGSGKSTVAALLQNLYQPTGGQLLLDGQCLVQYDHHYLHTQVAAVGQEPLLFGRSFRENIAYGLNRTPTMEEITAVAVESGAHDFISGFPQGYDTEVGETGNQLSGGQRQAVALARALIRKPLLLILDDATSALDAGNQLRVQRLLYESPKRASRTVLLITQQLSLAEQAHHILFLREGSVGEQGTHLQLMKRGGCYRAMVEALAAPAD
T1 sequence (P36371 1-702): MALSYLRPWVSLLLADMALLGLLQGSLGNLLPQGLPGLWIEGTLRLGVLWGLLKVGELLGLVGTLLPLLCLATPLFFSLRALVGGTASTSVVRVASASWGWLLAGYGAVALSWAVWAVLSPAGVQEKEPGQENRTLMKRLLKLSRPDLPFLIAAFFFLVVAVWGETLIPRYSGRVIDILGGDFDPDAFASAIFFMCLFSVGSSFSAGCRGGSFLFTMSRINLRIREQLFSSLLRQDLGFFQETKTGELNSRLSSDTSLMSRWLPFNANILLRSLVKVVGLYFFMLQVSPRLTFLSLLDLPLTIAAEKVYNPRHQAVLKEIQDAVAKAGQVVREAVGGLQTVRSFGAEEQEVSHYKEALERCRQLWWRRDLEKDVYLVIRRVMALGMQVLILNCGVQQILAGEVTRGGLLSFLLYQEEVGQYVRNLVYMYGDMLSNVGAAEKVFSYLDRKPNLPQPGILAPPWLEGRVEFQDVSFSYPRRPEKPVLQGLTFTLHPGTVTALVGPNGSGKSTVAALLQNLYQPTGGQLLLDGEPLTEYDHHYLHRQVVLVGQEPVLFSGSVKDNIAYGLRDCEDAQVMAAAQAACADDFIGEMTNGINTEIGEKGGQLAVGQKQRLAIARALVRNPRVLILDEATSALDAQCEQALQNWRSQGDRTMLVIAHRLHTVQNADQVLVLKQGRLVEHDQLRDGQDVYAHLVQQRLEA

| Sequence | IC50 (H-2K^b) [µM] | IC50 [1] [µM] |
| --- | --- | --- |
| YSPPLNKLF | 0.464 | > 92.7 |
| VMCTYSPPL | – | 2.47 |
| TTIHYKYM | – | 5.68 |
| AIYKKSQHM | 0.271 | 4.07 |
| LNKLFCQL | 2.04 | 7.16 |
| TYSPPLNKL | 13.6 | 5.81 |
